Source: patent US20260335327A1, “IDH MUTATIONS AS BIOMARKERS FOR ZOTIRACICLIB THERAPY” (Cothera Bioscience, Inc., priority 2022, published 2026)

Tests used:
Format in all cases: cell-based, Human
[1] = tested on: Hccc-9810; test: Apoptosis assay (Annexin V/PI staining, FACS), Hccc-9810 cells
Description: (§1) Cell Culture. Human Chondrosarcoma cell line HT-1080 was cultured in MEM (Gibco, USA) supplemented with 10% fetal bovine serum (FBS, Gemini, USA). Human cholangiocarcinoma cell lines RBE, Hccc-9810, and Hucct-1 were cultured in RPMI1640 (Hyclone, USA) supplemented with 10% FBS. Cells were incubated at 37 °C in 5% CO2.
(§2) Apoptosis Assay. HT-1080, RBE, Hccc-9810, and Hucct-1 cells were treated with the indicated drugs. Apoptosis was detected by Annexin V/PI staining kit (Thermo Fisher) according to the manufacturer's instructions. Briefly, cells were plated at a density of 1× 10^5 cells/well in media with 10% FBS with desired concentrations of TG02. At 48/72-hour post-treatment the cells were harvested and tested for apoptosis by Annexin V and PI staining. Cell analysis was performed using a FACSCelesta (BD).

[2] = tested on: mutant IDH1 (HT-1080) cells; test: Neutral comet assay (DNA damage), HT-1080 cells; details: for rescue of TG02-induced DNA damage: exogenous α-KG or AG-120 with TG02, 48 h
Description: as §1
Comet assay. The comet assay is common technique for measurement of DNA damage in individual cells. Under an electrophoretic field, damaged cellular DNA (containing fragments and strand breaks) is separated from intact DNA, yielding a classic “comet tail” shape under the microscope. DNA damage was assayed by OxiSelect™ Comet Assay Kit (CELL BIOLABS, INC.) according to the manufacturer's instructions. Briefly, comet agarose was pipetted onto the OxiSelect™ Comet Slide to form a base layer. Cells were combined with OxiSelect™ Comet agarose at 37 °C, then the agarose/cell mixture was pipetted onto the top of the base layer. Cells were treated with lysis buffer and alkaline solution. Electrophoresis was performed under neutral conditions. The slides were viewed by epifluorescence microscopy using a FITC filter.
Tail Moment=(100×Tail DNA Intensity/Cell DNA Intensity)×Tail Moment Length

[3] = tested on: Hucct-1 cells transfected with IDH1 R132H plasmid; test: Apoptosis assay (FACS), Hucct-1 cells transfected with IDH1 R132H plasmid; details: 0.1 μM TG02, 72 h; Hucct-1 transfected with IDH1 R132H; FIG. 3A
Description: as §1, §2
Transfection. The day before transfection, cells (~2×10^5/well) were seeded in a 6-well plate. The cells were cultured in a 37 °C in 5% CO2 incubator overnight. The old medium was removed and 2 ml of transfection medium was added. 50 μl opti-MEM was added to a tube, and then 2 μg plasmid DNA Mix solution was mixed by vortexing. 4 μl PEI solution was added to this tube, and the solution was mixed by gently pipetting up and down. The samples were incubated at room temperature for 15 min to allow the PEI/DNA complexes to form. […]

[4] = tested on: HT-1080; test: Apoptosis assay (Annexin V/PI staining, FACS), HT-1080 cells; details: 0.2 μM TG02; IDH1-mutant chondrosarcoma HT-1080; compared with IDH1-WT (Hucct-1); FIGS. 2A-2B
Description: as §1, §2

[5] = tested on: RBE; test: Apoptosis assay (Annexin V/PI staining, FACS), RBE cells; details: 0.2 μM TG02; IDH1-mutant cholangiocarcinoma RBE; compared with IDH1-WT (Hucct-1); FIGS. 2A-2B
Description: as §1, §2

[6] = tested on: mutant IDH1 cancer cells; test: Overall conclusion on DNA damage and cell-killing in mutant IDH1 versus homozygous wild-type IDH1 cancer cells; details: mutant IDH1 relative to homozygous wild-type IDH1 cancer cells
Description: as §2
(§3) Comet assay. The comet assay is common technique for measurement of DNA damage in individual cells. Under an electrophoretic field, damaged cellular DNA (containing fragments and strand breaks) is separated from intact DNA, yielding a classic “comet tail” shape under the microscope. DNA damage was assayed by OxiSelect™ Comet Assay Kit (CELL BIOLABS, INC.) according to the manufacturer's instructions. Briefly, comet agarose was pipetted onto the OxiSelect™ Comet Slide to form a base layer. Cells were combined with OxiSelect™ Comet agarose at 37 °C, then the agarose/cell mixture was pipetted onto the top of the base layer. Cells were treated with lysis buffer and alkaline solution. Electrophoresis was performed under neutral conditions. […]
Western blot. […] The concentrations of protein in cell lysate were determined by Micro BCA™ Protein Assay Kit (ThermoFisher, USA). […]

[7] = tested on: Hucct1^R132H/+ cells; test: Neutral comet assay (Tail moment), Hucct1^R132H/+ cells; details: 0.2 μM TG02, 48 h, compared with Hucct1 treated with TG02, FIG. 7A
Description: as §1, §3
In FIG. 7A, IDH1-mutant Hucct1 cells (Hucct1^R132H/+) were generated by lentivirus expressing IDH1 R132H. […] Quantification of Tail moment in neutral comet assay is presented. ns: no significant differences; ***: P<0.001, ****: P<0.0001, compared with NC; #: P<0.05, compared with Hucct1 cells treated with TG02. […]

[8] = tested on: Hucct1R132H/+ cells; test: Western blot of phosphorylated γH2AX (marker of DSBs), Hucct1^R132H/+ cells; details: 0.2 μM TG02, 16 h, FIG. 7B
Description: Western blot. […] Then the pellets were lysed in lysis buffer (Beyotime, China) which additionally included a protease inhibitor cocktail (Beyotime, China) and phosphatase inhibitor cocktail (Beyotime, China). Cells were incubated on ice for 30 minutes and then centrifuged at 4 °C, 12000 rpm for 10 minutes to obtain the supernatant as cell lysate. The concentrations of protein in cell lysate were determined by Micro BCA™ Protein Assay Kit (ThermoFisher, USA). 4×SDS-PAGE Sample Loading Buffer (SolarBio, China) was added into cell lysate contained 25 μg of total protein and, after boiling, the mixture was electrophoresed in polyacrylamide gel. After electrophoresis, proteins on the gel were transferred to PVDF membrane, and the membrane was cut at position close to the molecular weights of proteins whose expression was examined (pH2AX (CST, USA), GAPDH (ZSGB-BIO, China)).
In FIG. 7A, IDH1-mutant Hucct1 cells (Hucct1^R132H/+) were generated by lentivirus expressing IDH1 R132H. Hucct1, Hucct1^R132H/+ and HT-1080 cells were treated with 0.2 μM TG02 or 0.1% DMSO for 48 h. Cells were used to comet assays. Quantification of Tail moment in neutral comet assay is presented. ns: no significant differences; ***: P<0.001, ****: P<0.0001, compared with NC; #: P<0.05, compared with Hucct1 cells treated with TG02. […]

[9] = tested on: mutant IDH1 cells (Hccc-9810); test: Western blot of pH2AX (marker of DNA damage), Hccc-9810 cells; details: exogenous AG-120 with TG02, 48 h; WB; FIG. 6
Description: as §1
Western blot. Hccc-9810 and Hucct-1 cells treated with TG02 or AG120 as indicated for 48 h (0.1% DMSO was added as control) were harvested and centrifuged at 500 g for 5 minutes to obtain cell pellets. Then the pellets were lysed in lysis buffer (Beyotime, China) which additionally included a protease inhibitor cocktail (Beyotime, China) and phosphatase inhibitor cocktail (Beyotime, China). Cells were incubated on ice for 30 minutes and then centrifuged at 4 °C, 12000 rpm for 10 minutes to obtain the supernatant as cell lysate. The concentrations of protein in cell lysate were determined by Micro BCA™ Protein Assay Kit (ThermoFisher, USA). 4×SDS-PAGE Sample Loading Buffer (SolarBio, China) was added into cell lysate contained 25 μg of total protein and, after boiling, the mixture was electrophoresed in polyacrylamide gel. After electrophoresis, proteins on the gel were transferred to PVDF membrane, and the membrane was cut at position close to the molecular weights of proteins whose expression was examined (pH2AX (CST, USA), GAPDH (ZSGB-BIO, China)).

[10] = neutral comet assay, FIGS. 5A-5B

Row | SMILES | rescue of TG02-induced apoptosis ([1]; α-KG pretreatment 24 h, then TG02 for 72 h, FIG. 4) | rescue of TG02-induced DNA damage [2, 10] | TG02 sensitivity (apoptosis) [3] | sensitivity to TG02 (apoptosis) [4] | sensitivity to TG02 (apoptosis) [5] | sensitivity to TG02 (apoptosis) ([1]; 0.2 μM TG02, IDH1-mutant cholangiocarcinoma Hccc-9810 (printed Hcc-9810), compared with IDH1-WT (Hucct-1), FIGS. 2A-2B) | TG02-induced apoptosis ([1]; TG02 for 72 h, without exogenous α-KG, FIG. 4) | sensitivity to DNA damage induced by TG02 (Tail moment) ([2]; 0.2 μM TG02, 48 h, HT-1080, compared with Hucct1 treated with TG02, FIG. 7A) | TG02-induced DNA damage ([2]; 48 h, neutral comet assay, FIGS. 5A-5B) | selective DNA damage [6] | selective cell-killing [6] | sensitivity to DNA damage induced by TG02 (Tail moment) [7] | sensitivity to DNA damage induced by TG02 (phosphorylated γH2AX) [8] | rescue of TG02-induced DNA damage (pH2AX) [9]
1 | O=C(O)CCC(=O)C(=O)O [α-KG, α-ketoglutarate] | can be rescued by addition of exogenous substrate α-ketoglutarate (α-KG) | can be rescued by addition of exogenous α-KG or AG-120 | – | – | – | – | – | – | – | – | – | – | – | –
2 | CN1C/C=C/CCOc2cccc(c2)-c2ccnc(n2)Nc2cccc(c2)C1 [TG02, (16E)-14-methyl-20-oxa-5,7,14,27-tetraazatetracyclo[19.3.1.1^2,6. 1^8,12]heptacosa-1(25),2(27),3,5,8,10,12(26),16,21,23-decaene] | – | – | increased TG02 sensitivity can be conferred onto IDH1-WT (Hucct-1) cells by transfection of mutated IDH1 | more sensitive to TG02 than IDH1-WT (Hucct-1) cells | more sensitive to TG02 than IDH1-WT (Hucct-1) cells | more sensitive to TG02 than IDH1-WT (Hucct-1) cells | TG02-induced apoptosis of mutant IDH1 (Hccc-9810) cells | cells with IDH1 mutation are more sensitive to DNA damage induced by TG02 | TG02-induced DNA damage in mutant IDH1 (HT-1080) cells | selectively induces DNA damage and cell-killing in mutant IDH1 cancer cells relative to homozygous wild-type IDH1 cancer cells | selectively induces DNA damage and cell-killing in mutant IDH1 cancer cells relative to homozygous wild-type IDH1 cancer cells | cells with IDH1 mutation are more sensitive to DNA damage induced by TG02 | cells with IDH1 mutation are more sensitive to DNA damage induced by TG02 | –
3 | N#Cc1ccnc(N2C(=O)CC[C@H]2C(=O)N(c2cncc(F)c2)[C@H](C(=O)NC2CC(F)(F)C2)c2ccccc2Cl)c1 [AG-120, ivosidenib] | – | can be rescued by addition of exogenous α-KG or AG-120 | – | – | – | – | – | – | – | – | – | – | – | TG02-induced DNA damage was rescued only in mutant IDH1 cells (Hccc-9810)
